Where a name gives a salt, the structure may show the parent alone.
Key:
[1] = Screening of crystallization inhibitors: sorafenib content in polymer carrier/cholate medium over time; type: physicochemical; settings: pH 6.8 phosphate + 0.1% SDS with the inhibitor, 37° C.
[2] = Solubility test of solid dispersions (pH 1.0 hydrochloric acid, pH 6.8 phosphate buffer, FaSSGF, FaSSIF); type: physicochemical; settings: pH 1.0 hydrochloric acid solution, 37° C., main drug:carrier 1:3
Experimental: An appropriate amount of solid dispersion (SD) was added to a pH 1.0 hydrochloric acid solution and a pH 6.8 phosphate buffer solution, while keeping the SD in excess, and shaken at 37° C. in a shaker at 300 rpm.

Structure (SMILES)	Sorafenib content detection ([1]; 0.5 h) [µg/mL]	Sorafenib content detection ([1]; 1 h) [µg/mL]	Sorafenib content detection ([1]; 2 h) [µg/mL]	Sorafenib content detection ([1]; 3 h) [µg/mL]	Sorafenib content detection ([1]; 4 h) [µg/mL]	Sorafenib content detection ([1]; 6 h) [µg/mL]	Solubility ([2]; 0.5 h) [µg/mL]	Solubility ([2]; 2 h) [µg/mL]	Solubility ([2]; 4 h) [µg/mL]
C[C@H](CCC(=O)NCC(=O)[O-])[C@H]1CC[C@H]2[C@@H]3[C@H](O)C[C@@H]4C[C@H](O)CC[C@]4(C)[C@H]3C[C@H](O)[C@]12C.[Na+] [0.3% SGC, sodium glycocholate]	14.32	5.88	4.32	3.98	3.77	3.57			
C[C@H](CCC(=O)NCC(=O)[O-])[C@H]1CC[C@H]2[C@@H]3[C@H](O)C[C@@H]4C[C@H](O)CC[C@]4(C)[C@H]3CC[C@]12C.[Na+] [0.3% SGCDC, sodium glycochenodeoxycholate]	61.59	47.08	10.41	5.38	4.28	3.68			
C[C@H](CCC(=O)NCC(=O)[O-])[C@H]1CC[C@H]2[C@@H]3CC[C@@H]4C[C@H](O)CC[C@]4(C)[C@H]3C[C@H](O)[C@]12C.[Na+] [0.3% SGDC, sodium glycodeoxycholate]	15.78	6.28	4.11	4.01	4.04	3.87			

More lines, now with the values ahead:

Sorafenib content detection ([1]; 0.5 h) [µg/mL]	Sorafenib content detection ([1]; 1 h) [µg/mL]	Sorafenib content detection ([1]; 2 h) [µg/mL]	Sorafenib content detection ([1]; 3 h) [µg/mL]	Sorafenib content detection ([1]; 4 h) [µg/mL]	Sorafenib content detection ([1]; 6 h) [µg/mL]	Solubility ([2]; 0.5 h) [µg/mL]	Solubility ([2]; 2 h) [µg/mL]	Solubility ([2]; 4 h) [µg/mL]	Structure (SMILES)
14.43	6.22	4.69	4.79	4.81	5.79				C[C@H](CCC(=O)NCCS(=O)(=O)[O-])[C@H]1CC[C@H]2[C@@H]3[C@@H](O)C[C@@H]4C[C@H](O)CC[C@]4(C)[C@H]3CC[C@]12C.[Na+] [0.3% STCDC]
47.72	25.90	11.19	7.82	6.58	5.90				C[C@H](CCC(=O)NCCS(=O)(=O)[O-])[C@H]1CC[C@H]2[C@@H]3CC[C@@H]4C[C@H](O)CC[C@]4(C)[C@H]3C[C@H](O)[C@]12C.[Na+] [0.3% STDC, sodium taurodeoxycholate]
						3.7	4.1	4.1	CNC(=O)c1cc(Oc2ccc(NC(=O)Nc3ccc(Cl)c(C(F)(F)F)c3)cc2)ccn1 [TSSLFN, Sorafenib tosylate]
